Article PMC10176470, “Engaging a Non-catalytic Cysteine Residue Drives Potent and Selective Inhibition of Caspase-6” (Journal of the American Chemical Society, 2023)

Columns and labels:
Experiment in all cases: SILAC proteomics / in-gel fluorescence, competition of probe 13-t labeling by 3a
[1] = biological target: proteins of HEK293T cells transiently overexpressing caspase-6 (Homo sapiens, UniProt P36405)
Experimental: (§1) Cells were lysed, and heavy and light SILAC lysates were combined in a 1:1 ratio and subjected to CuAAC reaction with azido-biotin to biotinylate probe-labeled proteins for subsequent capture on streptavidin-coated beads. Bead-bound proteins were split for analysis by in-gel fluorescence and tryptic digestion on-bead for LC–MS/MS analysis.
(§2) SILAC labeling and alkyne probe treatment: HEK293T cells were seeded into 8x 15 cm plates at
(§3) a density of 500,000 cells/plate. 4 of these plates were grown in light SILAC DMEM and 4 were
(§4) grown in heavy SILAC DMEM all containing 10% FBS and 4.5g/L glucose. The next day, all 8
(§5) plates were transfected with a pCMV6-Entry plasmid coding for caspase-6-myc-DDK lacking the
(§6) prodomain. After 24 hours, media was replaced with fresh SILAC growth media containing 4.5 g/L
(§7) glucose and 3% FBS. 24 hours later the plates were treated with probe and inhibitor for 1 hours as
(§8) follows: 2 of the light plates were treated with vehicle, 2 light plates and 2 heavy plates treated with
(§9) for 60 minutes. After treatment, media was removed, and cells were washed with 15 mL PBS for 5
(§10) minutes. Cells were then harvested by scraping in cold PBS and lysed in the presence of Roche
(§11) complete protease inhibitors. Lysates were clarified by centrifugation at 10,000xg for 10 minutes and
(§12) the protein in the supernatant was quantified by BCA assay.
(§13) Proteomics assay: 1 mg of each lysate was diluted to 2mg/ml in PBS with Roche complete protease
(§14) inhibitors. To this was added 0.1 mM biotin-azide, 1 mM tris(2-carboxyethyl)phosphine (TCEP), 0.1
(§15) mM Tris((1-benzyl-4-triazolyl)methyl)amine (TBTA) ligand, and 1 mM CuSO4 in a final volume of
(§16) 0.5 mL. The reaction was incubated at room temperature for 1 hour and was vortexed every 15
(§17) minutes. After 1 hour, proteins are precipitated and are pelleted by centrifuging at 16,000xg for 4
(§18) min at 4 °C. The supernatants were discarded, and the pellets were solubilized with 0.5 mL cold
(§19) The cold methanol wash was then repeated, and the washed
(§20) pellets were resuspended in 1 mL of 1.2% SDS and sonicated until clear. The samples were heat
(§21) denatured at 80-90 °C for 5 minutes and any insoluble particles were removed by centrifugation at
(§22) 6,500xg for 5 minutes. The 1 mL supernatant was transferred to a 15 mL conical tubes containing 5
(§23) mL of PBS and 150 µL of washed neutravidin beads were added. The samples were incubated for 2
(§24) hours at 4 °C while rotating, at which point the samples were warmed to resolubilize any precipitated
(§25) SDS. The beads were pelleted by centrifugation at 1400xg for 3 min and washed for 10 minutes with
(§26) the following solutions: 2x 1% NP-40, 2x PBS + 1 M NaCl, and 2x 50 mM ammonium bicarbonate
(§27) (ABC) + 2 M urea. The beads were then transferred to a 1.5 mL microcentrifuge tube using 2x250
(§28) µL 100 mM Tris pH 8.0 + 4 M Guanidium hydrochloride (final volume 500 µL).

[2] = biological target: proteins of HEK293T cells transiently overexpressing caspase-6 (Homo sapiens, UniProt P06744)
Experimental: as §1, §2, §3, §4, §5, §6, §7, §8, §9, §10, §11, §12, §13, §14, §15, §16, §17, §18, §19, §20, §21, §22, §23, §24, §25, §26, §27, §28

[3] = biological target: proteins of HEK293T cells transiently overexpressing caspase-6 (Homo sapiens, UniProt P54886); settings: Comp; protein ALDH18A1 P54886
Experimental: as §1, §2, §3, §4, §5, §6, §7, §8, §9, §10, §11, §12, §13, §14, §15, §16, §17, §18, §19, §20, §21, §22, §23, §24, §25, §26, §27, §28

[4] = biological target: T1, proteins of HEK293T cells transiently overexpressing caspase-6 (Homo sapiens, UniProt Q99832); settings: Comp; protein CCT7 Q99832
T1 sequence (Q99832 1-543): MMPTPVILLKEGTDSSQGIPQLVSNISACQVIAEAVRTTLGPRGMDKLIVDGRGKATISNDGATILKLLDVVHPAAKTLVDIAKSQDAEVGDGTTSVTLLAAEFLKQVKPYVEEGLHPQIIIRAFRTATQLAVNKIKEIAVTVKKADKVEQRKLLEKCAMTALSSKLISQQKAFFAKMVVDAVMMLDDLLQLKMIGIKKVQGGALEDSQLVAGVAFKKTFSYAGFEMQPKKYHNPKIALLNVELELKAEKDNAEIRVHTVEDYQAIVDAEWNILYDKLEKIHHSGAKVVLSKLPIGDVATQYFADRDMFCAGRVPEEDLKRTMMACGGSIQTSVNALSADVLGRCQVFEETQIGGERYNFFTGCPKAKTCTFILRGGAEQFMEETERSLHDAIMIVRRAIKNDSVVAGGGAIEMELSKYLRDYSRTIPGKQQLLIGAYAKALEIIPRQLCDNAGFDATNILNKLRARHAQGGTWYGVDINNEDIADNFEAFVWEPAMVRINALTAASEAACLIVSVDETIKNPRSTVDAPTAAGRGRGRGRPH
Experimental: as §1, §2, §3, §4, §5, §6, §7, §8, §9, §10, §11, §12, §13, §14, §15, §16, §17, §18, §19, §20, §21, §22, §23, §24, §25, §26, §27, §28

[5] = biological target: proteins of HEK293T cells transiently overexpressing caspase-6 (Homo sapiens, UniProt P12277); settings: Comp; protein CKB P12277
Experimental: as §1, §2, §3, §4, §5, §6, §7, §8, §9, §10, §11, §12, §13, §14, §15, §16, §17, §18, §19, §20, §21, §22, §23, §24, §25, §26, §27, §28

[6] = biological target: proteins of HEK293T cells transiently overexpressing caspase-6 (Homo sapiens, UniProt P17987); settings: Comp; protein TCP1 P17987
Experimental: as §1, §2, §3, §4, §5, §6, §7, §8, §9, §10, §11, §12, §13, §14, §15, §16, §17, §18, §19, §20, §21, §22, §23, §24, §25, §26, §27, §28

[7] = biological target: proteins of HEK293T cells transiently overexpressing caspase-6 (Homo sapiens, UniProt Q14566); settings: Comp; protein MCM6 Q14566
Experimental: as §1, §2, §3, §4, §5, §6, §7, §8, §9, §10, §11, §12, §13, §14, §15, §16, §17, §18, §19, §20, §21, §22, §23, §24, §25, §26, §27, §28

[8] = biological target: T2, proteins of HEK293T cells transiently overexpressing caspase-6 (Homo sapiens, UniProt P30084)
T2 sequence (P30084 28-290): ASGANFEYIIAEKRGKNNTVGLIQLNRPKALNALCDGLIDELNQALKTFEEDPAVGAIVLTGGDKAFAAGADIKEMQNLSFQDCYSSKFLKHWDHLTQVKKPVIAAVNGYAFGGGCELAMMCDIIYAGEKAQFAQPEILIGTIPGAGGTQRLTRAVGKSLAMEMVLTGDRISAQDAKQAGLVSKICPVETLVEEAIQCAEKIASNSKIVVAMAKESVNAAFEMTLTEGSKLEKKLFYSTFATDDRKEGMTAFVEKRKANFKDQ
Experimental: as §1, §2, §3, §4, §5, §6, §7, §8, §9, §10, §11, §12, §13, §14, §15, §16, §17, §18, §19, §20, §21, §22, §23, §24, §25, §26, §27, §28

[9] = biological target: T3, proteins of HEK293T cells transiently overexpressing caspase-6 (Homo sapiens, UniProt P50990); settings: Comp; protein CCT8 P50990
T3 sequence (P50990 1-548): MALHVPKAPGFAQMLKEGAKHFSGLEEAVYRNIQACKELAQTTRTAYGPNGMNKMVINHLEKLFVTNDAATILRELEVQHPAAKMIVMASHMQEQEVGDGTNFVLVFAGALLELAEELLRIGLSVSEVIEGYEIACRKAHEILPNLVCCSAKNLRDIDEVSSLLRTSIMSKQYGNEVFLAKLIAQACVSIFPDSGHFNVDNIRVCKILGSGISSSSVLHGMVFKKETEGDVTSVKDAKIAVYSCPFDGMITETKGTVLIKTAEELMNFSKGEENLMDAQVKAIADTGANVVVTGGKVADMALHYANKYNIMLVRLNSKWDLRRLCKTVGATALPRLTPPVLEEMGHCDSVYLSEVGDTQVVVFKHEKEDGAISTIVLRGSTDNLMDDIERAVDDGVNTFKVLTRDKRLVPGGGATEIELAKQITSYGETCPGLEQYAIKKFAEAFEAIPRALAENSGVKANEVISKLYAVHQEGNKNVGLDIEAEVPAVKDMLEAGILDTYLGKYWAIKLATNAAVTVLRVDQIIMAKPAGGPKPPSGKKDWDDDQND
Experimental: as §1, §2, §3, §4, §5, §6, §7, §8, §9, §10, §11, §12, §13, §14, §15, §16, §17, §18, §19, §20, §21, §22, §23, §24, §25, §26, §27, §28

[10] = biological target: proteins of HEK293T cells transiently overexpressing caspase-6 (Homo sapiens, UniProt P38919); settings: Comp; protein EIF4A3 P38919
Experimental: as §1, §2, §3, §4, §5, §6, §7, §8, §9, §10, §11, §12, §13, §14, §15, §16, §17, §18, §19, §20, §21, §22, §23, §24, §25, §26, §27, §28

[11] = biological target: proteins of HEK293T cells transiently overexpressing caspase-6 (Homo sapiens, UniProt P46060); settings: Comp; protein RANGAP1 P46060
Experimental: as §1, §2, §3, §4, §5, §6, §7, §8, §9, §10, §11, §12, §13, §14, §15, §16, §17, §18, §19, §20, §21, §22, §23, §24, §25, §26, §27, §28

[12] = biological target: proteins of HEK293T cells transiently overexpressing caspase-6 (Homo sapiens, UniProt Q14204)
Chain of proteins of HEK293T cells transiently overexpressing caspase-6 (Homo sapiens, UniProt Q14204) (Q14204 whole entry): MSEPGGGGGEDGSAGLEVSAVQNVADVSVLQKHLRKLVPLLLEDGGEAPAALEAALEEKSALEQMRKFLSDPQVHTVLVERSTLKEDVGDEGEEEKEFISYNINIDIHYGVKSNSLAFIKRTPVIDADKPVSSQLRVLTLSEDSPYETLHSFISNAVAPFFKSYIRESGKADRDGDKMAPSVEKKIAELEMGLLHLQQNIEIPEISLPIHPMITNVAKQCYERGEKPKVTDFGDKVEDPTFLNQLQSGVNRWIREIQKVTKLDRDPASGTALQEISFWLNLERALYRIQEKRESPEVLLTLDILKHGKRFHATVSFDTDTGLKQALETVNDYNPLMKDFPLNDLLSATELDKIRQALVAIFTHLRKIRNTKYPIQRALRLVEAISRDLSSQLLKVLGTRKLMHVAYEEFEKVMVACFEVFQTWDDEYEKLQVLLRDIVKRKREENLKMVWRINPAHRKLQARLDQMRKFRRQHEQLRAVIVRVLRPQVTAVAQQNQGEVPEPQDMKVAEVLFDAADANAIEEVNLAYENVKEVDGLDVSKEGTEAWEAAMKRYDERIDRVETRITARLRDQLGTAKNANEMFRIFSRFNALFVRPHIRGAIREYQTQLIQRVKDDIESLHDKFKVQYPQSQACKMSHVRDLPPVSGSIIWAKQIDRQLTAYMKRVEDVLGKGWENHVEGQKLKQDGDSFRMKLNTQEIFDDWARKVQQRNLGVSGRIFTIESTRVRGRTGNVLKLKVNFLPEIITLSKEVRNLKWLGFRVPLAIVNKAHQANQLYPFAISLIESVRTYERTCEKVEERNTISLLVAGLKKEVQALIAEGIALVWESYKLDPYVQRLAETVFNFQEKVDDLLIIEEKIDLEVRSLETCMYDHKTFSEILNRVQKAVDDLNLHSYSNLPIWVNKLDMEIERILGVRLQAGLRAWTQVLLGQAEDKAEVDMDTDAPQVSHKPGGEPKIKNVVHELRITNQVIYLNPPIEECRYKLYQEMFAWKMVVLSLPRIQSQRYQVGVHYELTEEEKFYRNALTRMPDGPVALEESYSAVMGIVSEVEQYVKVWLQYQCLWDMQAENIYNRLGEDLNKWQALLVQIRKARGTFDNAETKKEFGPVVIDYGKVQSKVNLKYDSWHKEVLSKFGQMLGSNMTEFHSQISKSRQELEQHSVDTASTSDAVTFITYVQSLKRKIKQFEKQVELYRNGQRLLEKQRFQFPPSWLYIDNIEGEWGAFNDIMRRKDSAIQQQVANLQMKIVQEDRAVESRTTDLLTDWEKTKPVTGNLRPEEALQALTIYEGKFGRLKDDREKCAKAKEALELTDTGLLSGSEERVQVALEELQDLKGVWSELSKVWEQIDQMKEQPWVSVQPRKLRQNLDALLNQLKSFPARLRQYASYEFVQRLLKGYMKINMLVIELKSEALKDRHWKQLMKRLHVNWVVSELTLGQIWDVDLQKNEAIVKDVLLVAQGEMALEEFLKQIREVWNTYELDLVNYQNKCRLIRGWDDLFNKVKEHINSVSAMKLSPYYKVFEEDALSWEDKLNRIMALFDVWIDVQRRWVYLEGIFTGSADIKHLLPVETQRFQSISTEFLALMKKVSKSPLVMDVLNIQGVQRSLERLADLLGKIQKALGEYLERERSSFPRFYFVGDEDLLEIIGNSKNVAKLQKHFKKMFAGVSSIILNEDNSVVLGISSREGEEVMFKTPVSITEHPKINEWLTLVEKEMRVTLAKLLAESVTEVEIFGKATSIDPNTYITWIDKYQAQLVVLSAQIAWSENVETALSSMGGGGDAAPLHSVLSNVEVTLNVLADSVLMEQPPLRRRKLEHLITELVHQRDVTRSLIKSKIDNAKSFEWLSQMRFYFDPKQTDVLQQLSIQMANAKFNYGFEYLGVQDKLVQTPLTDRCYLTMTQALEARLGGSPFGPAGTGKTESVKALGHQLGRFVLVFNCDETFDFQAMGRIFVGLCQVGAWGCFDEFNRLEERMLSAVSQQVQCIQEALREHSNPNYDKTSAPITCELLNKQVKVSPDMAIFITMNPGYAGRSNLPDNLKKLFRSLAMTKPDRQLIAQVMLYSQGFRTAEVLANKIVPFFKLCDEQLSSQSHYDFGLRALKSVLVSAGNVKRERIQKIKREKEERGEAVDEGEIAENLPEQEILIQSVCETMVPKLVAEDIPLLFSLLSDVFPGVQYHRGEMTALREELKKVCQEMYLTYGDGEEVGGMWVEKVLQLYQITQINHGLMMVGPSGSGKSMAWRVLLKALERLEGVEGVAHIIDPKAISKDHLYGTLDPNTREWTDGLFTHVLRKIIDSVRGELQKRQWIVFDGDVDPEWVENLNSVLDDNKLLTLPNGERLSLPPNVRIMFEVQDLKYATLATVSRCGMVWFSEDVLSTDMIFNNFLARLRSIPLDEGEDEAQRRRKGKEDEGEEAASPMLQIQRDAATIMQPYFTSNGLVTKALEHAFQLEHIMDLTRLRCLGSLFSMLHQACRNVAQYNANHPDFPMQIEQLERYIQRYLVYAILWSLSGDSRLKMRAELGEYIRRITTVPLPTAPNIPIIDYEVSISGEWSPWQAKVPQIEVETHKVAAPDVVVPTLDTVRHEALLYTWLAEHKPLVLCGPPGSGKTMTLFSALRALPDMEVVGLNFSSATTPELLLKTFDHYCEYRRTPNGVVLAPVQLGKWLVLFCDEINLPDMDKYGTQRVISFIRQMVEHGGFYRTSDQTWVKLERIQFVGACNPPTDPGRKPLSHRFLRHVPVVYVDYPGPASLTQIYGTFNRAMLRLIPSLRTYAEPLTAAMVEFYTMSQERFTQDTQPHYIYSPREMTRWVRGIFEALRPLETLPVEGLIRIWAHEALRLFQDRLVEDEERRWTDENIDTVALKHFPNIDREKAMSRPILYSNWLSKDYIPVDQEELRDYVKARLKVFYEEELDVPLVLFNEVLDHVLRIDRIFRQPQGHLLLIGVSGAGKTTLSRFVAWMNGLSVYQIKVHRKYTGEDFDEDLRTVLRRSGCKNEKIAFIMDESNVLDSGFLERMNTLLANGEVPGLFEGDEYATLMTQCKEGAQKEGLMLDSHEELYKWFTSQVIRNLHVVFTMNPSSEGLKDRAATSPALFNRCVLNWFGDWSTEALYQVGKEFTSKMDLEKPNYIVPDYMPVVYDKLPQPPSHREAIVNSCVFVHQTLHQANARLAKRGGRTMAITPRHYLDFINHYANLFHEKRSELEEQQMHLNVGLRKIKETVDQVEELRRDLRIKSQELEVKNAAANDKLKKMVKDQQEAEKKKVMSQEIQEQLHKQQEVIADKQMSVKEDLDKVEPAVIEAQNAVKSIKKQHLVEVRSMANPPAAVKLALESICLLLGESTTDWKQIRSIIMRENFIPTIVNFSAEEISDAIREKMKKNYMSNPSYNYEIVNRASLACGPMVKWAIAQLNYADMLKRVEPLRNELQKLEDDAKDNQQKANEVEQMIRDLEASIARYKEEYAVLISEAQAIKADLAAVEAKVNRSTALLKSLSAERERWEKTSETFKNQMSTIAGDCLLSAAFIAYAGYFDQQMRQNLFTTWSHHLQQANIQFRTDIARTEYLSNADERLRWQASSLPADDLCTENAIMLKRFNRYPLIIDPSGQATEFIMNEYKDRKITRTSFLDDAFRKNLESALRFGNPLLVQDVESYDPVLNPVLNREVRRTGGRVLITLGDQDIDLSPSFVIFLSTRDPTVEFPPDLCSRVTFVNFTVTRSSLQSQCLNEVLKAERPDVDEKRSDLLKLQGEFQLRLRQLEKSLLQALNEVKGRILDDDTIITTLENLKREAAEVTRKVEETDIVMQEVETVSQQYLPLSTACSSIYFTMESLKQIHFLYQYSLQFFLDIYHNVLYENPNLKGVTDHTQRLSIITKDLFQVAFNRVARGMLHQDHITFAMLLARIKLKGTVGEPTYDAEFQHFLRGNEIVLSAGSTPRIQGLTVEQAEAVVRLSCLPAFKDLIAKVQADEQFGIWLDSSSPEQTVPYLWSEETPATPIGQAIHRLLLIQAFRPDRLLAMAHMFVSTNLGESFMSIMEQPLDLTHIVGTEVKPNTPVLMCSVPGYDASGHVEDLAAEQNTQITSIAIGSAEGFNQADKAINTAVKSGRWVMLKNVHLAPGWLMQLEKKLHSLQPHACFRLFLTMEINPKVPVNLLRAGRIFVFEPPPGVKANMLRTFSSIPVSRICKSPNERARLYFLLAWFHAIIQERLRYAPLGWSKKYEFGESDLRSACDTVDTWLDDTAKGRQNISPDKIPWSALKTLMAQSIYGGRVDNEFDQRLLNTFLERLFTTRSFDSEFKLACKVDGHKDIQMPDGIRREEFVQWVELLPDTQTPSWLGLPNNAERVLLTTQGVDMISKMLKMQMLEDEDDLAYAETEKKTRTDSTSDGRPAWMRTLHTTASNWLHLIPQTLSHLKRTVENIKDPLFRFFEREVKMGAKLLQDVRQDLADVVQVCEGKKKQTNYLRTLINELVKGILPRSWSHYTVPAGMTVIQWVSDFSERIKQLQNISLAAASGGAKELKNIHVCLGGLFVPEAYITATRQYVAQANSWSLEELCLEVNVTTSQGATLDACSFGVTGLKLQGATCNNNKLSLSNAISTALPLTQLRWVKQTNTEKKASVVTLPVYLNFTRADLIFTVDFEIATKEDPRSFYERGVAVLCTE
Experimental: as §1, §2, §3, §4, §5, §6, §7, §8, §9, §10, §11, §12, §13, §14, §15, §16, §17, §18, §19, §20, §21, §22, §23, §24, §25, §26, §27, §28

[13] = protein ARL3 (P36405), Exp Comp, analysis C6, p 0.1250, 5 peptides
[14] = protein GPI (P06744), Exp Comp, analysis C6, p 0.0078, 8 peptides
[15] = protein ECHS1 (P30084), Exp Comp, analysis C6, p 0.1250, 5 peptides
[16] = protein DYNC1H1 (Q14204), Exp Comp, analysis C6, p 0.1250, 4 peptides

Chain of proteins of HEK293T cells transiently overexpressing caspase-6 (Homo sapiens, UniProt P36405) (P36405 whole entry): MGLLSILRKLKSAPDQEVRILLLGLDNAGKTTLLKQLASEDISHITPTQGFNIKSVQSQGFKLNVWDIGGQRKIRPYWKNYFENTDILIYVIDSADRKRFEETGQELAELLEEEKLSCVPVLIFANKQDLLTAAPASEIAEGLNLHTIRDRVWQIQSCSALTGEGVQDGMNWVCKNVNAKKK

## C=CS(=O)(=O)N1C[C@H](C(=O)Nc2ccc(OC(F)(F)F)cc2)C[C@@H](c2ccccc2)C1 [3a]
[1]; Comp, protein ARL3 P36405
  enrich.exp.med: 1.0898
[1]; [13]
  enrich.exp.med.lin: 2.128
  enrich.exp.med.log2: 1.0898
[2]; Comp, protein GPI P06744
  enrich.exp.med: 1.157
[2]; [14]
  enrich.exp.med.lin: 2.229
  enrich.exp.med.log2: 1.157
[3]
  enrich.exp.med: 0.7021
[4]
  enrich.exp.med: 0.6137
[5]
  enrich.exp.med: 0.6631
[6]
  enrich.exp.med: 0.7901
[7]
  enrich.exp.med: 0.8484
[8]; Comp, protein ECHS1 P30084
  enrich.exp.med: 2.261
[8]; [15]
  enrich.exp.med.lin: 4.794
  enrich.exp.med.log2: 2.261
[9]
  enrich.exp.med: 0.6038
[10]
  enrich.exp.med: 0.7351
[11]
  enrich.exp.med: 0.6389
[12]; Comp, protein DYNC1H1 Q14204
  enrich.exp.med: 1.335
[12]; [16]
  enrich.exp.med.lin: 2.5227
  enrich.exp.med.log2: 1.335
